Legend:
[1] = Antagonism of tetrabenazine effects (ptosis and catalepsy); assay type: in vivo; conditions: ptosis and catalepsy at 60 and 120 minutes after administration; read-out: ED50, antagonism of effects induced by tetrabenazine
Description: (§1) The action mechanism was studied in acute and chronic treatments on the interaction response with clonidine, salbutamol (Richard, J. Intern. J. Neuroscience, 9:17-19, 1979) and tetrabenazine (Pletscher, A.: An. N.Y. Aca. Sci. 80:1039-1045, 1959), and the response to the potentiation with L-dopa, L-tryptophan, tryptamine (Jalfre, M. et al., Arch. Int. Pharmacodyn, 159:194-221, 1982) and β-phenylethylamine (Ortmann, et al, Psychopharmacol. 84:22-27, 1984).

[2] = Secondary effects on the cardiovascular system; conditions: in vivo
Protocol: The secondary effects were studied mainly on the cardiovascular system, and the effects on the arterial pressure, heart rate and rhythm, P-R interval and isolated organ (rabbit aortic rings and isolated atria), were evaluated both after acute and chronic treatments. In the same way, the "cheese effect" was studied by means of the tyramine potentiation.

[3] = test system: 5-HT receptors; experiment: Effects of chronic treatment on 5-HT2 receptors; assay type: in vivo; conditions: chronic administration in the rat
Protocol: Effects of chronic treatment on α2 -, β- and 5-HT2 receptors. The test compounds, at a dose of 10 mg/kg/day i.p., were administered for 21 days to Wistar male rats (250±2.4 g). After treatment the animals were killed, brains were dissected and cortices were scraped from the dorsal surface of the […]. ^3 H UK 14304, ^3 H Dihydroalprenalol and ^3 H Ketanserin were used as ligands in the binding studies.

[4] = Interaction with salbutamol-induced hypoactivity; assay type: in vivo
Description: as §1

[5] = Potentiation of β-phenylethylamine; assay type: in vivo
Description: as §1

[6] = test system: reuptake of dopamine; experiment: Reuptake of dopamine in vitro, crude synaptosomal preparation; assay type: biochemical, rat
Protocol: Influence on the reuptake of monoamines "in vitro" was also studied. The effect of the compounds on the reuptake of 5-HT noradrenaline and dopamine was studied using Wistar male rats (350±2.5 g). They were kept under controlled light and temperature conditions and fed "ad libitum" until killed. The animals were killed by decapitation and brains were frozen and stored at -20° C. prior to analysis. Brains were dissected on an ice-filled petri dish. The cortices for 5-HT and noradrenaline assay and striatum (including caudate nucleus, putamen and globus pallidus) for dopamine assay were immediately weighed and homogenized. […] All drugs used in the study were dissolved in the incubation medium in a concentration range 10^-4 to 10^-8 M and were preincubated with the crude synaptosomal preparation obtained from the treated brains, for 5 min. at 37° C. or 0° C. before the addition of the labelled substrate.

[7] = test system: brain, duodenum and liver MAO B; experiment: In vivo inhibition of MAO B of different tissues after chronic treatment; design: species or system rat
Protocol: 4. "In vivo" inhibition of MAO A and B of different tissues after chronic treatment.
In order to evaluate the effect of compounds in a chronic treatment, the inhibitory activity on brain, duodenum and liver MAO A and B has been studied "in vivo". Wistar male rats were treated at two dose levels, 0.1 and 0.25 mg/kg i.p. for 15 and 21 days. Control rats received similar amounts of saline solution.

[8] = Potentiation of 5-HT; assay type: in vivo
[9] = test system: rat cerebral MAO A; experiment: Ex vivo inhibition of rat cerebral MAO A after single dosing; assay type: in vivo
Protocol: 2. "Ex vivo inhibition" of rat cerebral MAO A and B after single dosing.
This gives the degree of inhibition in vivo of both forms of the enzyme and variation of this inhibition with time after treatment with a single dose. […] Animals were sacrificed by decapitation 24 h. and 7 days after treatment and brains were removed and homogenized. Enzymatic activities determined in treated animals, were compared with the activities in control animals (100%).

[10] = target: T1, Bovine Brain MAO A (Bos taurus, UniProt P21398); experiment: In vitro inhibition of MAO from bovine brain mitochondria, tyramine as substrate (form A); assay type: biochemical; conditions: pI50 = -log [I50], molar
T1 construct: in vitro activity of MAO from bovine brain mitochondria; from tissue; host or cells: bovine brain mitochondria
T1 sequence (P21398 1-527): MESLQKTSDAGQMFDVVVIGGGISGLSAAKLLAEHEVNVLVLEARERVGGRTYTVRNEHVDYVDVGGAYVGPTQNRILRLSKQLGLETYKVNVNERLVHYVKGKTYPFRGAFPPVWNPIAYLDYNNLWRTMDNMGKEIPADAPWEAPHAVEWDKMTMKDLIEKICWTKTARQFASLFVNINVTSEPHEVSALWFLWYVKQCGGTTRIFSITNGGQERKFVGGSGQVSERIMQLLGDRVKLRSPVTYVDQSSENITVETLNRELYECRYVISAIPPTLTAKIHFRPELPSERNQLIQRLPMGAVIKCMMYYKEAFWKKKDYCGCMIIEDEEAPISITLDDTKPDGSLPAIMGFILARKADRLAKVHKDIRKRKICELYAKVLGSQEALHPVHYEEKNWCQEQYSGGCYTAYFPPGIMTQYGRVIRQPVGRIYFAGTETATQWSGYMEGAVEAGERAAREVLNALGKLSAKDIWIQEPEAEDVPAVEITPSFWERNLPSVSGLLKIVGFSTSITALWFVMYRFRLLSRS
Description: (§2) The following table illustrates the structure of particular compounds of the invention (1). It also gives specific pI50 values where pI50 =-log [I50 ] where [I50 ] is the molar concentration of test compound which inhibits 50% of the in vitro activity of MAO from bovine brain mitochondria using tyramine as substrate.

[11] = target: T2, Bovine Brain MAO B (Bos taurus, UniProt P56560); experiment: In vitro inhibition of MAO from bovine brain mitochondria, tyramine as substrate (form B); assay type: biochemical; conditions: pI50 = -log [I50], molar; bovine brain mitochondria, tyramine as substrate
T2 construct: in vitro activity of MAO from bovine brain mitochondria; from tissue; host or cells: bovine brain mitochondria
T2 sequence (P56560 1-520): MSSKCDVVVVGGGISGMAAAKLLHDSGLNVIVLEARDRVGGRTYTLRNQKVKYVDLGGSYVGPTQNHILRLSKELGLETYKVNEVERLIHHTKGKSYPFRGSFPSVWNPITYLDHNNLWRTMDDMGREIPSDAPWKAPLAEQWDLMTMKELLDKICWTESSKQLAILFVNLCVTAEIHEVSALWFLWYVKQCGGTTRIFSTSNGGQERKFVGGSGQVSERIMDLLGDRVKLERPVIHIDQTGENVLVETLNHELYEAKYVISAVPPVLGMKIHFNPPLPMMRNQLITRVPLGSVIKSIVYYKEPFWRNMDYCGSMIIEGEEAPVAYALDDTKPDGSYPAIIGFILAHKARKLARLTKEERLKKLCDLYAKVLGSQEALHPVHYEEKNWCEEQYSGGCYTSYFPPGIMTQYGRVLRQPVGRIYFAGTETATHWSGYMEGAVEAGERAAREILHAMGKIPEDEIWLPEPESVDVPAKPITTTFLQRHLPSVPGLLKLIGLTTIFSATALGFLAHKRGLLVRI
Description: as §2

In the case of C#CCN(C)Cc1cc2cc(OC)ccc2n1C [(l), N-methyl-N-propargyl-2-(1-methyl-5-methoxy-indolyl)methylamine], the ED50 [1] is reported as less than 6 mg/kg, the Cardiovascular effects [2] is reported as “hypotensive and negative chronotrope” and the “Modifications on 5-HT receptors” value [3] is reported as “not statistically significant”. For the same compound, the “Hypoactivity by salbutamol, acute treatment” value ([4]; acute treatment) was “not modifying it”, the “Hypoactivity by salbutamol, chronic treatment” value ([4]; chronic treatment (14 days)) was “antagonized” and the ED50 [5] was 27 mg/kg. For the same compound, the “Inhibition of the reuptake of dopamine” value [6] was “very weak inhibitor”, the “Potency as inhibitor of dopamine reuptake relative to amitryptiline” value [6] was “similar” and the “Potency as inhibitor of dopamine reuptake relative to imipramine” value [6] was “ten fold”. For the same compound, the “Activity on hepatic MAO B” value ([7]; hepatic) was “very low activity”, the “Effect on intestinal MAO B” value ([7]; intestinal) was “without any effect” and the ED50 [8] was 0.34 mg/kg. The “Persistence of MAO A inhibitory effect” value ([9]; dose increased (5 mg/kg)) was “observed even after 7 days”, the “Onset of MAO A inhibitory effect” value ([9]; single dose (1 mg/kg)) was “reached soon after the administration of a single dose” and the IC50 [10] was 8.91 nM. The IC50 [11] was 891 nM.

Source: patent US5130327A, “Indole derivatives” (Consejo Superior de Investigaciones Cientificas, priority 1989, dated 1992)
